Test results reported in ChEMBL document CHEMBL1157256, “Junceellolides J-L, 11,20-epoxybriaranes from the gorgonian coral Junceella fragilis” (2006).

Key:
[1] = Antioxidant activity in human neutrophils assessed as inhibition of superoxide generation at 10 ug/mL by colorimetric method relative to control; format: functional; conditions: Neutrophil
Neutrophil = test: Inhibition of FMLP/cytochalasin B-stimulated elastase release in human neutrophils at 10 ug/mL relative to control; format: functional

SMILES | inhibition at 10 µg/mL [1] [%] | inhibition at 10 µg/mL (Neutrophil) [%]
CC(=O)O[C@H]1CC/C(C)=C\[C@@H]2OC(=O)[C@H](C)[C@@]2(O)[C@@H](OC(C)=O)[C@H]2[C@@]3(CC[C@H](OC(C)=O)[C@]12C)CO3 | 22.6 | 15.4
CC(=O)O[C@H]1CC[C@@]2(CO2)[C@@H]2[C@H](OC(C)=O)[C@]3(O)[C@@H](C)C(=O)O[C@H]3[C@@H]3O[C@]3(C)CC[C@H](OC(C)=O)[C@@]12C [JUNCEELLOLIDE J] | 7.66 | 5.17
CC(=O)O[C@H]1CC/C(C)=C\[C@@H]2OC(=O)[C@H](C)[C@@]2(O)[C@@H](OC(C)=O)[C@H]2[C@]3(CC[C@H](OC(C)=O)[C@]12C)CO3 [JUNCEELLOLIDE K] | 13.9 | 15
CC(=O)O[C@H]1CC[C@]2(CO2)[C@@H]2[C@H](OC(C)=O)[C@]3(O)[C@@H](C)C(=O)O[C@H]3[C@@H](O)[C@](C)(O)CC[C@H](OC(C)=O)[C@@]12C [JUNCEELLOLIDE L] | 5.55 | 5.52
